Measurements: patent US8835472B2, “Compounds, pharmaceutical compositions and uses thereof” (Boehringer Ingelheim International GmbH, priority 2010, dated 2014)

Target: human ACC2 (Homo sapiens (Human), UniProt O00763)
Assay: ACC2 assay, spectrophotometric 384 well assay (NADH-linked, coupled lactate dehydrogenase/pyruvate kinase reaction)
Assay type: biochemical
Settings: hACC2 construct lacking the 128 N-terminal amino acids; 25° C., 340 nm over 15 minutes
Procedure, shortened: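 Kinetic NADH-linked assay (pyruvate kinase/lactate dehydrogenase coupling) with baculovirus-expressed hACC2 missing its first 128 amino acids. Started with 500 μM ATP and 200 μM each NADH and acetyl-CoA; slope followed 15 min at 25 °C, pH 7.5. No-acetyl-CoA wells define 0%; IC50 by nonlinear regression.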

human ACC2, sequence (O00763 129-2458): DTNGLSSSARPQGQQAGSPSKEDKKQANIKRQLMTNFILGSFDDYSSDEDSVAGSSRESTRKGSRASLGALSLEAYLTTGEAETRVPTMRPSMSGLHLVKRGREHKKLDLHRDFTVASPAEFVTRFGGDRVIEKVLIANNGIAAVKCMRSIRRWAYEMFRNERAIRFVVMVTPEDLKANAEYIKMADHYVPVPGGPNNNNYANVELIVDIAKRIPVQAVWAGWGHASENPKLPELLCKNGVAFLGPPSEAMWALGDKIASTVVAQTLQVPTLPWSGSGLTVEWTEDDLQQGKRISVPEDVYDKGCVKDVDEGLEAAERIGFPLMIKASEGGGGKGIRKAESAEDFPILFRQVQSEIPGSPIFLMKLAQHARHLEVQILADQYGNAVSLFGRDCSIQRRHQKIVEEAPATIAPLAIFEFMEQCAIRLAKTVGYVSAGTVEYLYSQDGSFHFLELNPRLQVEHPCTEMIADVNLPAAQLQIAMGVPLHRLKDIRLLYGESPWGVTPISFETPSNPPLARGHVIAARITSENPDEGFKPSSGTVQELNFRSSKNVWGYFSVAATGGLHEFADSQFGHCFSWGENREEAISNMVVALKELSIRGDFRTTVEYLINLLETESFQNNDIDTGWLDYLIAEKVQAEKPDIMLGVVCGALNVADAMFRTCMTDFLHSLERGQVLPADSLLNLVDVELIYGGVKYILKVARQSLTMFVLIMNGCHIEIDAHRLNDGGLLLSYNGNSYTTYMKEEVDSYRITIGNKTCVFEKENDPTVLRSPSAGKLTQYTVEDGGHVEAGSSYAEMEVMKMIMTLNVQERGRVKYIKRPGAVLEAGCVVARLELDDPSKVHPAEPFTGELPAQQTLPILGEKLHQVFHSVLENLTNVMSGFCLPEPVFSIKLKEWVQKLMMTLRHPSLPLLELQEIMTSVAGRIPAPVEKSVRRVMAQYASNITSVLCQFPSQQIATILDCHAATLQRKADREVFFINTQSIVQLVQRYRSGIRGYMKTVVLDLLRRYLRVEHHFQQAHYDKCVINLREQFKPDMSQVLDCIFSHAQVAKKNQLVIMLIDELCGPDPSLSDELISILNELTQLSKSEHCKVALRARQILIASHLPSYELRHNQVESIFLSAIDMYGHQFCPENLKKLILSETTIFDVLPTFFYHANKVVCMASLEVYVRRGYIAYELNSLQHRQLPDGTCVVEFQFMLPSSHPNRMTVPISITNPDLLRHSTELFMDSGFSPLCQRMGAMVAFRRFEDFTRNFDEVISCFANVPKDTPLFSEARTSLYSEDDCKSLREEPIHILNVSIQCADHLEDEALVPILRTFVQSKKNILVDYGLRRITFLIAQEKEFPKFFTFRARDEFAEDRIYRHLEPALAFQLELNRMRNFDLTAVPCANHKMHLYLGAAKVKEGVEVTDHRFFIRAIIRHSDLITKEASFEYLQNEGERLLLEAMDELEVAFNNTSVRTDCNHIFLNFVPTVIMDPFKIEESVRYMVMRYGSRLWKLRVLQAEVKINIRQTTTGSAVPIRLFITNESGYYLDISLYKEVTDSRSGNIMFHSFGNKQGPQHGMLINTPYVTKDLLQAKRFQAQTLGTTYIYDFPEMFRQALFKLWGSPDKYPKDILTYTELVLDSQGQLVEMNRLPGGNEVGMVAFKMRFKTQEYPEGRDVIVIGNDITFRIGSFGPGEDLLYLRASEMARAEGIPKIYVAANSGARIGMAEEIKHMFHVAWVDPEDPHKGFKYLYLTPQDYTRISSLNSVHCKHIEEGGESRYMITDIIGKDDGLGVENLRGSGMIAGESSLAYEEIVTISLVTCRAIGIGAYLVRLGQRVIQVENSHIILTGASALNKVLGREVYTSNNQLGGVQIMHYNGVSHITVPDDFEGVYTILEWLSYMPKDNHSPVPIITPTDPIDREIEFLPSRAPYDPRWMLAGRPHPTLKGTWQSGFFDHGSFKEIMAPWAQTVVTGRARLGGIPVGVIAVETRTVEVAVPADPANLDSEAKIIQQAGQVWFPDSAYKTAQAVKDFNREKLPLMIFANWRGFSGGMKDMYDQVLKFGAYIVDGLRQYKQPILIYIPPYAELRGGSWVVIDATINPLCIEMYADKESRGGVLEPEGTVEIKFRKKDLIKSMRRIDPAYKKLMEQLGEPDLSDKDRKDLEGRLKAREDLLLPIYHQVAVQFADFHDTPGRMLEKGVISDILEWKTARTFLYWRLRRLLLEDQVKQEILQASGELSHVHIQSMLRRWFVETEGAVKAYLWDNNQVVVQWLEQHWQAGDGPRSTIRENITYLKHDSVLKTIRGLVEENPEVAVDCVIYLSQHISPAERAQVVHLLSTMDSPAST

Row | SMILES | IC50 [nM]
1 | CC(=O)NC(C)Cc1ccc(C#Cc2ccc(OCC(C)F)cc2)cc1 (centres unmarked) [Example 9.39] | 180
2 | CCCOc1ccc(C#Cc2ccc(C(C)NC(C)=O)cc2)cc1 (centres unmarked) [Example 2.49] | 250
3 | CC(=O)NC(C)Cc1ccc(C#Cc2cccc(C(=O)N3CCCC3)c2)cc1 (centres unmarked) [Example 8.48] | 6200
4 | COC(C)CN(C)c1nccc(C#Cc2ccc(CC(C)NC(C)=O)cc2)n1 (centres unmarked) [Example 11.17] | 1700
5 | COc1ccc(Cl)c(C#Cc2ccc(CC(C)NC(C)=O)cc2)c1 (centres unmarked) [Example 3.8] | 690
6 | CC(Cc1ccc(C#Cc2cccc(OC(C)C)c2)cc1)NC(=O)C1CC1 (centres unmarked) [Example 14.32] | 710
7 | CNc1ncc(C#Cc2ccc(CC(C)NC(C)=O)cc2)cn1 (centres unmarked) [Example 13.60] | 250
8 | CCOc1ccc(C#Cc2ccc(CN3CCCC3=O)cc2)cc1 [Example 16.2] | 3200
9 | CCOc1ccc(C#Cc2ccc(CC(C)NC(=O)CCNC(C)=O)cc2)cc1 (centres unmarked) [Example 4.70] | 1300
10 | CC(=O)NC(C)Cc1ccc(C#Cc2cnc(OCc3cccc(F)c3)nc2)cc1 (centres unmarked) [Example 12.54] | 230
11 | CC(=O)NC(C)Cc1ccc(C#Cc2cnc(NC3CCCC3)nc2)cc1 (centres unmarked) [Example 13.8] | 220
12 | C[C@H](NC(=O)C1CC1)c1ccc(C#Cc2cnc(NC3CC3)nc2)cc1 [Example 13.91] | 2900
13 | COc1ccc(C#Cc2ccc(C(C)NC(C)=O)cc2)c(C)c1 (centres unmarked) [Example 1.30] | 2100
14 | CC(=O)N[C@@H](C)c1ccc(C#Cc2cnc(N3CC4CCCC4C3)nc2)cc1 (some centres unmarked) [Example 13.93] | 270
15 | CC(=O)NC(C)Cc1ccc(C#Cc2ccc(OCC3(N)CC3)c(C)c2)cc1 (centres unmarked) [Example 2.5] | 820
16 | CC(=O)NC(C)Cc1ccc(C#Cc2ccc(OCC(C)C)cc2)cc1 (centres unmarked) [Example 2.17] | 110
17 | CC(=O)NC(C)Cc1ccc(C#Cc2ccc(Oc3cncnc3)cc2)cc1 (centres unmarked) [Example 10.1, N-(1-(4-((4-(Pyrimidin-5-yloxy)phenyl)ethynyl)phenyl)propan-2-yl)acetamide] | 190
18 | CC(=O)NC(C)Cc1ccc(C#Cc2ccnc(N3CCCC(c4ccccc4)C3)n2)cc1 (centres unmarked) [Example 11.27] | 400
19 | CC(=O)NC(C)Cc1ccc(C#Cc2ccnc(N(C)CC3CC3)n2)cc1 (centres unmarked) [Example 11.21] | 250

Row | SMILES | IC50 [nM]
20 | CC(=O)N[C@@H](C)Cc1ccc(C#Cc2ccc(C(C)(C)C)cc2)cc1 [Example 23.4] | 90
21 | COCCOc1cc(C#Cc2ccc(CC(C)NC(C)=O)cc2)ccn1 (centres unmarked) [Example 20.1, N-(2-{4-[2-(2-Methoxy-ethoxy)-pyridin-4-ylethynyl]-phenyl}-1-methyl-ethyl)-acetamide; compound with trifluoro-acetic acid] | 980
22 | CCCOc1ccc(C#Cc2ccc(CC(C)NC(C)=O)cc2)cc1 (centres unmarked) [Example 24.1, N-{1-Methyl-2-[4-(4-propoxy-phenylethynyl)-phenyl]-ethyl}-acetamide] | 70
23 | CCN(CC)c1ncc(C#Cc2ccc(CC(C)NC(C)=O)cc2)cn1 (centres unmarked) [Example 13.23] | 1200
24 | CC(Cc1ccc(C#Cc2ccc3c(c2)CCO3)cc1)NC(=O)C1CC1 (centres unmarked) [Example 2.62] | 740
25 | CC(=O)NC(C)Cc1ccc(C#Cc2cnc(OC3CCOC3)nc2)cc1 (centres unmarked) [Example 12.10] | 630
26 | C[C@H](NC(=O)C1CC1)c1ccc(C#Cc2cnc(Oc3ccccc3)nc2)cc1 [Example 12.67] | 3900
27 | CCOc1cc(C#Cc2ccc(C[C@H](C)NC(C)=O)cc2)ccn1 (stereo in doubt) [Example 23.1, N-{2-[4-(2-Ethoxy-pyridin-4-ylethynyl)-phenyl]-1-methyl-ethyl}-acetamide] | 230
28 | CC(=O)NC(C)Cc1ccc(C#Cc2cnc(Oc3ccc(F)cc3)nc2)cc1 (centres unmarked) [Example 12.49] | 230
29 | CCOc1ccc(C#Cc2ccc(CC(C)NC(=O)C3CC3C)cc2)cc1 (centres unmarked) [Example 4.35] | 380
30 | CC(=O)N[C@@H](C)c1ccc(C#Cc2ccc(OCC(C)C)cc2)cc1 [Example 14.26] | 140
31 | CCOc1ccc(C#Cc2ccc(CC(C)NC(=O)C(=O)CC)cc2)cc1 (centres unmarked) [Example 4.24] | 1000
32 | CC(=O)NC(C)Cc1ccc(C#Cc2ccnc(NCC(C)C)n2)cc1 (centres unmarked) [Example 11.44] | 1300
33 | CC(=O)NC(C)Cc1ccc(C#Cc2cccc(C(=O)N3CCN(C)CC3)c2)cc1 (centres unmarked) [Example 8.54] | 25100
34 | CCOc1ccc(C#Cc2ccc(CC(C)NC(=O)C(C)(C)F)cc2)cc1 (centres unmarked) [Example 4.49] | 8700
35 | CCOc1ccc(C#Cc2ccc(CC(C)NC(=O)CC(C)C)cc2)cc1 (centres unmarked) [Example 4.23] | 310
36 | CC(=O)NC(C)Cc1ccc(C#Cc2cnc(OCCC3CC3)nc2)cc1 (centres unmarked) [Example 12.33] | 320
37 | COCCOc1ccc(C#Cc2ccc(CC(C)NC(C)=O)cc2)cn1 (centres unmarked) [Example 2.24] | 760
38 | CCCNc1nccc(C#Cc2ccc(CC(C)NC(C)=O)cc2)n1 (centres unmarked) [Example 11.3] | 2300

Now from value to molecule:

Row | IC50 [nM] | SMILES
39 | 580 | CCOc1cc(C#Cc2ccc(C(C)NC(C)=O)cc2)ccn1 (centres unmarked) [Example 2.102]
40 | 670 | CC(=O)NC(C)Cc1ccc(C#Cc2cnc(NC3CCOC3)nc2)cc1 (centres unmarked) [Example 13.19]
41 | 730 | CC(=O)NC(C)Cc1ccc(C#Cc2cnc(N3CCOCC3)nc2)cc1 (centres unmarked) [Example 13.22]
42 | 210 | CCCC(=O)NC(C)Cc1ccc(C#Cc2ccc(OCC)cc2)cc1 (centres unmarked) [Example 4.1, N-(1-(4-((4-ethoxyphenyl)ethynyl)phenyl)propan-2-yl)butyramide]
43 | 400 | CC(=O)NC(C)Cc1ccc(C#Cc2ccc(OCCc3ccncc3)cc2)cc1 (centres unmarked) [Example 9.23]
44 | 120 | CC(=O)NC(C)Cc1ccc(C#Cc2ccc3c(c2)OCC(C)(C)CO3)cc1 (centres unmarked) [Example 14.55]
45 | 510 | CC(=O)NC(C)Cc1ccc(C#Cc2ccnc(N3CCC(C(F)(F)F)CC3)n2)cc1 (centres unmarked) [Example 11.18]
46 | 240 | CC(=O)NC(C)Cc1ccc(C#Cc2ccc(OC(C)C)nc2)cc1 (centres unmarked) [Example 2.21]
47 | 680 | CCOc1ccc(C#Cc2ccc(CC(C)NC(=O)C3CCNC3=O)cc2)cc1 (centres unmarked) [Example 4.58]
48 | 410 | CCCc1ccc(C#Cc2ccc(C(C)NC(C)=O)cc2)cc1 (centres unmarked) [Example 2.46]
49 | 300 | CC(=O)NC(C)Cc1ccc(C#Cc2cnn(Cc3ccccc3)c2)cc1 (centres unmarked) [Example 2.108]
50 | 5600 | CC(=O)NC(C)Cc1ccc(C#Cc2ccc(C(=O)N(C)Cc3nc(C)oc3C)cc2)cc1 (centres unmarked) [Example 8.2]
51 | 1000 | CC(=O)NC(C)Cc1ccc(C#Cc2cnc(OC(CF)CF)nc2)cc1 (centres unmarked) [Example 12.44]
52 | 170 | CC(=O)NC(C)Cc1ccc(C#Cc2cnc(OCc3ccc(F)cc3)nc2)cc1 (centres unmarked) [Example 12.55]
53 | 1200 | CCCS(=O)(=O)NC(C)Cc1ccc(C#Cc2ccc(OCC)cc2)cc1 (centres unmarked) [Example 5.3]
54 | 290 | CCCN(C)c1nccc(C#Cc2ccc(CC(C)NC(C)=O)cc2)n1 (centres unmarked) [Example 11.46]
55 | 30000 | CC(=O)NC(C)Cc1ccc(C#Cc2cccc(C(=O)NCCN3CCOCC3)c2)cc1 (centres unmarked) [Example 8.24]
56 | 1900 | CCOc1cc(C#Cc2ccc(CC(C)NC(C)=O)cc2)ncn1 (centres unmarked) [17.1]
57 | 11100 | COCCNC(=O)c1cccc(C#Cc2ccc(CC(C)NC(C)=O)cc2)c1 (centres unmarked) [Example 8.27]
58 | 1800 | COC(=O)NC(C)Cc1ccc(C#Cc2cnc(NCc3cccnc3)nc2)cc1 (centres unmarked) [Example 13.33]
59 | 260 | CC(=O)NC(C)Cc1ccc(C#Cc2cnc(OC(C)C(F)(F)F)nc2)cc1 (centres unmarked) [Example 12.38]
